Reference: article PMC12155096 (International Journal of Molecular Sciences, 2025)
Read-outs that look alike come from different tables or passages of the source.

Key:
human CYP1A2 = target: T1, human CYP1A2 (Homo sapiens, UniProt P05177); test: biochemical
T1 sequence (P05177 1-516): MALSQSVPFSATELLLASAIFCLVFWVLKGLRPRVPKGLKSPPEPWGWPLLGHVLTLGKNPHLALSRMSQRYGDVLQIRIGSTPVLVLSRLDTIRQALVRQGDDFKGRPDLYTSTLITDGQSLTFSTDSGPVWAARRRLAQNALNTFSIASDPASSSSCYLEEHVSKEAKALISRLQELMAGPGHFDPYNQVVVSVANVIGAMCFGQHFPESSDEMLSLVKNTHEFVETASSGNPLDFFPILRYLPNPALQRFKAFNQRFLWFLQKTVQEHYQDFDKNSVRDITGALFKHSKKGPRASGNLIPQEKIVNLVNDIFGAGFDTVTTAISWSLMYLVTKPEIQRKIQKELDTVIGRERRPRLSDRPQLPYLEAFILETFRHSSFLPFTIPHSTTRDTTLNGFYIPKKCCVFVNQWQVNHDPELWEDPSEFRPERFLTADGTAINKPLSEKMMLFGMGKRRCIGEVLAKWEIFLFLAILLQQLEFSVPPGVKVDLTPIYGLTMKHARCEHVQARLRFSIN

CYP3A4 = CYP3A4 (Homo sapiens, UniProt P08684); test: biochemical
human CYP2C9 = human CYP2C9 (Homo sapiens, UniProt P11712); test: biochemical
human CYP2D6 = human CYP2D6 (Homo sapiens, UniProt P10635)
human CYP2C19 = human CYP2C19 (Homo sapiens, UniProt P33261); test: biochemical
[1] = CYP1A2 AC50 (half-maximal activity concentration)
[2] = CYP3A4 AC50 (half-maximal activity concentration)
[3] = CYP2C9 AC50 (half-maximal activity concentration)
[4] = CYP2C19 AC50 (half-maximal activity concentration)

Sequence of human CYP2D6 (P10635 whole entry): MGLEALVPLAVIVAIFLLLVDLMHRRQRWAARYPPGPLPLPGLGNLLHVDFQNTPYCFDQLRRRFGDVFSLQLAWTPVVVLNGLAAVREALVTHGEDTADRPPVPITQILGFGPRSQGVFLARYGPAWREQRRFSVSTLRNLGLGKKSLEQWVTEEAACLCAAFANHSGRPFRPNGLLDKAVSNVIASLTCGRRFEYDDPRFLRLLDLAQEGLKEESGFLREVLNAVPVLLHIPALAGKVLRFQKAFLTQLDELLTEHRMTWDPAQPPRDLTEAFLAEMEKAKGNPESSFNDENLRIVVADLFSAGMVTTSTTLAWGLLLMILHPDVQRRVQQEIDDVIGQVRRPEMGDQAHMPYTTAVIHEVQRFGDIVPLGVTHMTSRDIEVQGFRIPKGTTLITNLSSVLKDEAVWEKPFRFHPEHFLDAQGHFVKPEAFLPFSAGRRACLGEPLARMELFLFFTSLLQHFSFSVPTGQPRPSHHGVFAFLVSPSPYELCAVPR
Sequence of CYP3A4 (P08684 whole entry): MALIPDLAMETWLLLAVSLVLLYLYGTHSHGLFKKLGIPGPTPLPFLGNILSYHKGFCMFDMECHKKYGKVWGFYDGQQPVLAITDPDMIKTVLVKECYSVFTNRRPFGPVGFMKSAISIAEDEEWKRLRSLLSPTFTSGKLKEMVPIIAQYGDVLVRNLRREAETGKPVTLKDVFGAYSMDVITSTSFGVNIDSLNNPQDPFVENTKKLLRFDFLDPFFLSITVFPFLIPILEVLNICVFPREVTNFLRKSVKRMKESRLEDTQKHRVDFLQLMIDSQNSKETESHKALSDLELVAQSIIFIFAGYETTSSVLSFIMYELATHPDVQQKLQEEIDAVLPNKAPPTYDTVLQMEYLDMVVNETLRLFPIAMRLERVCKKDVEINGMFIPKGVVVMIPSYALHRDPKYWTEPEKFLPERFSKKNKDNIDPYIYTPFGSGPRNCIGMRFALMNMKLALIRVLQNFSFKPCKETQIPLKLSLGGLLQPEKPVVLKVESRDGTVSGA
Sequence of human CYP2C9 (P11712 whole entry): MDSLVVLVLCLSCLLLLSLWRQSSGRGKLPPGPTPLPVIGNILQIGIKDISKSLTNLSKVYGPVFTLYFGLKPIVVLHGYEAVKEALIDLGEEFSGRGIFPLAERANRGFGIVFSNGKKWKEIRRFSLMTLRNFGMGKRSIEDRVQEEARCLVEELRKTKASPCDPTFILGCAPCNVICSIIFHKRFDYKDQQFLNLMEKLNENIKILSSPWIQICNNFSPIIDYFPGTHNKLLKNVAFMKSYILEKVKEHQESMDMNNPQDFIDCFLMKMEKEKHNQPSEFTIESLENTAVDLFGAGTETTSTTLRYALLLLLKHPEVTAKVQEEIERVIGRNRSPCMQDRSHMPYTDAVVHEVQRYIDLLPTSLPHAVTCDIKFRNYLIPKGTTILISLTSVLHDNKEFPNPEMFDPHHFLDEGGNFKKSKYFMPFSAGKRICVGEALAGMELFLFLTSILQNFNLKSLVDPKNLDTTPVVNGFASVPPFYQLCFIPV
Sequence of human CYP2C19 (P33261 whole entry): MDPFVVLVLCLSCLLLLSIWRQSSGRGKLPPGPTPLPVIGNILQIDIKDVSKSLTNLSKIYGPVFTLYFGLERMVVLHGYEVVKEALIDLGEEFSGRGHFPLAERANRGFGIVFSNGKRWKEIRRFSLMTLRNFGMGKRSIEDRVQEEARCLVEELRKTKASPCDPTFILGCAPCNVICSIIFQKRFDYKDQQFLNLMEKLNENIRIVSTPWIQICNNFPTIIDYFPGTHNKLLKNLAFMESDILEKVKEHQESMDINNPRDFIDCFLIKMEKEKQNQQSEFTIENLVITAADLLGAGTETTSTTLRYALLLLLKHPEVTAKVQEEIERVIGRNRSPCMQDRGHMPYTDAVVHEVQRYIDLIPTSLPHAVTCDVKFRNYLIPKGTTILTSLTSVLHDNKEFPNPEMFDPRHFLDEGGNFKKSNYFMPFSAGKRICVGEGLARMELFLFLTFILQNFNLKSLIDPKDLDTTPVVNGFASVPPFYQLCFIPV

Compound: O=[N+]([O-])c1cc(C(F)(F)F)cc([N+](=O)[O-])c1Cl
- AC50 (human CYP1A2; [1]): 64.7 µM
- AC50 (CYP3A4; [2]): 49.2 µM
- AC50 (human CYP2C9; [3]): 18 µM
- CYP2D6 AC50 (half-maximal activity concentration) (human CYP2D6): Inconclusive inhibitor
- AC50 (human CYP2C19; [4]): 56.7 µM

Compound: N#CCCC(Br)(C#N)CBr (stereo not drawn) [1,2-Dibromo-2,4-dicyanobutane]
- AC50 (human CYP1A2; [1]): 14.6 µM
- AC50 (CYP3A4; [2]): 9.92 µM
- AC50 (human CYP2C9; [3]): 8.43 µM
- CYP2D6 AC50 (half-maximal activity concentration) (human CYP2D6): Inconclusive inhibitor
- AC50 (human CYP2C19; [4]): 11.5 µM

Compound: c1cnc2c(c1)ccc1cccnc12 [1,10-Phenanthroline]
- AC50 (human CYP1A2; [1]): 11.7 µM
- AC50 (CYP3A4; [2]): 69.5 µM
- AC50 (human CYP2C9; [3]): 4.65 µM
- CYP2D6 AC50 (half-maximal activity concentration) (human CYP2D6): Inconclusive inhibitor
- AC50 (human CYP2C19; [4]): 11.9 µM

Compound: O=[N+]([O-])c1cccc2ccccc12 [1-Nitronaphthalene]
- AC50 (human CYP1A2; [1]): 2.96 µM
- AC50 (CYP3A4; [2]): 15.6 µM
- AC50 (human CYP2C9; [3]): 31.2 µM
- CYP2D6 AC50 (half-maximal activity concentration) (human CYP2D6): Inactive
- AC50 (human CYP2C19; [4]): 59.8 µM

Compound: CCCCOC(=O)COc1ccc(Cl)cc1Cl [2,4-D 1-butyl ester]
- AC50 (human CYP1A2): 35.7 ± 4.11 µM
- AC50 (CYP3A4): 2.69 ± 0.56 µM
- AC50 (human CYP2C9): 35.6 µM
- CYP2D6 AC50 (half-maximal activity concentration) (human CYP2D6): Inactive
- AC50 (human CYP2C19): 30.5 ± 10 µM

Compound: CC(C)OC(=O)COc1ccc(Cl)cc1Cl [2,4-D isopropyl ester]
- AC50 (human CYP1A2; [1]): 13.6 µM
- AC50 (CYP3A4; [2]): 7.02 µM
- AC50 (human CYP2C9; [3]): 35 µM
- CYP2D6 AC50 (half-maximal activity concentration) (human CYP2D6): Inconclusive inhibitor
- AC50 (human CYP2C19; [4]): 15.5 µM

Compound: CCCCCCC(C=O)=Cc1ccccc1 [2-Benzylideneoctanal]
- AC50 (human CYP1A2; [1]): 13.8 µM
- AC50 (CYP3A4; [2]): 7.81 µM
- AC50 (human CYP2C9; [3]): 31.1 µM
- CYP2D6 AC50 (half-maximal activity concentration) (human CYP2D6): Inactive
- AC50 (human CYP2C19; [4]): 25.6 µM

Compound: O=[N+]([O-])c1ccccc1-c1ccccc1 [2-Nitro-1,1'-biphenyl]
- AC50 (human CYP1A2; [1]): 1.66 µM
- AC50 (CYP3A4; [2]): 34.3 µM
- AC50 (human CYP2C9; [3]): 22.6 µM
- CYP2D6 AC50 (half-maximal activity concentration) (human CYP2D6): Inactive
- AC50 (human CYP2C19; [4]): 30.4 µM

Compound: O=C(OCCc1ccccc1)c1ccccc1 [2-Phenylethyl benzoate]
- AC50 (human CYP1A2): 17.1 µM
- AC50 (CYP3A4): 7.51 µM
- AC50 (human CYP2C9): 30.6 µM
- CYP2D6 AC50 (half-maximal activity concentration) (human CYP2D6): Inconclusive inhibitor
- AC50 (human CYP2C19): 13.5 µM

Compound: Nc1cc(Cl)cc(Cl)c1 [3,5-Dichloroaniline]
- AC50 (human CYP1A2; [1]): 30.7 µM
- AC50 (CYP3A4; [2]): 43.2 µM
- AC50 (human CYP2C9; [3]): 74.5 µM
- CYP2D6 AC50 (half-maximal activity concentration) (human CYP2D6): Inactive
- AC50 (human CYP2C19; [4]): 17.7 µM

Compound: O=C(C=Cc1ccccc1)OCC=Cc1ccccc1 [3-Phenyl-2-propen-1-yl 3-phenylacrylate]
- AC50 (human CYP1A2; [1]): 25.3 µM
- AC50 (CYP3A4; [2]): 24.9 µM
- AC50 (human CYP2C9; [3]): 29.4 µM
- CYP2D6 AC50 (half-maximal activity concentration) (human CYP2D6): Inactive
- AC50 (human CYP2C19; [4]): 31.8 µM

Compound: Brc1ccc(Oc2ccc(Br)cc2)cc1 [4,4'-Dibromodiphenyl ether]
- AC50 (human CYP1A2; [1]): 18.8 µM
- AC50 (CYP3A4; [2]): 28.4 µM
- AC50 (human CYP2C9; [3]): 24.6 µM
- CYP2D6 AC50 (half-maximal activity concentration) (human CYP2D6): Inactive
- AC50 (human CYP2C19; [4]): 3.02 µM

Compound: O=C(c1ccc(Cl)cc1)c1ccc(Cl)cc1 [4,4'-Dichlorobenzophenone]
- AC50 (human CYP1A2; [1]): 2.34 µM
- AC50 (CYP3A4; [2]): 11 µM
- AC50 (human CYP2C9; [3]): 6.1 µM
- CYP2D6 AC50 (half-maximal activity concentration) (human CYP2D6): Inactive
- AC50 (human CYP2C19; [4]): 1.67 µM

Compound: O=C(c1ccccc1)c1ccc(Cl)cc1 [4-Chlorobenzophenone]
- AC50 (human CYP1A2): 3.84 µM
- AC50 (CYP3A4): 35.6 µM
- AC50 (human CYP2C9): 50 µM
- CYP2D6 AC50 (half-maximal activity concentration) (human CYP2D6): Inconclusive inhibitor
- AC50 (human CYP2C19): 14.7 µM

Compound: O=C(/C=C/c1ccccc1)OCc1ccccc1 [Benzyl cinnamate]
- AC50 (human CYP1A2; [1]): 7.8 µM
- AC50 (CYP3A4; [2]): 21.5 µM
- AC50 (human CYP2C9; [3]): 12.4 µM
- CYP2D6 AC50 (half-maximal activity concentration) (human CYP2D6): Inactive
- AC50 (human CYP2C19; [4]): 13.6 µM

Compound: O=[N+]([O-])C(Br)(CO)CO [Bronopol]
- AC50 (human CYP1A2; [1]): 14.2 µM
- AC50 (CYP3A4; [2]): 5.19 µM
- AC50 (human CYP2C9; [3]): 4.61 µM
- CYP2D6 AC50 (half-maximal activity concentration) (human CYP2D6): Inactive
- AC50 (human CYP2C19; [4]): 5.81 µM

Compound: CC(C)N(Cc1ccccc1)C(=O)C(C)(C)C [Butam]
- AC50 (human CYP1A2; [1]): 32.6 µM
- AC50 (CYP3A4; [2]): 9.61 µM
- AC50 (human CYP2C9; [3]): 34.3 µM
- CYP2D6 AC50 (half-maximal activity concentration) (human CYP2D6): Inactive
- AC50 (human CYP2C19; [4]): 15.1 µM

Compound: C[Si](Cl)(c1ccccc1)c1ccccc1 [Chloro(methyl)diphenylsilane]
- AC50 (human CYP1A2; [1]): 32.2 µM
- AC50 (CYP3A4; [2]): 23.4 µM
- AC50 (human CYP2C9; [3]): 3.53 µM
- CYP2D6 AC50 (half-maximal activity concentration) (human CYP2D6): Inconclusive inhibitor
- AC50 (human CYP2C19; [4]): 2.26 µM
